Each structure is given as a SMILES string. Active and inactive are the calls of the source. The calls are words filed in the database; no cut-off is given here.

A short description of data set [1]: Metabolic stability in mouse liver microsome assessed as half life measured upto 60 mins by LC-MS/MS analysis. Type of data set: ADME. To be noted: liver microsomes.
A short description of data set [2]: Metabolic stability in human liver microsome assessed as half life measured upto 60 mins by LC-MS/MS analysis. Type of data set: ADME. Conditions: liver microsomes.
Data set [3] has as its system AHH-1. Kind of data set: Induction of cell cycle arrest in human AHH-1 cells assessed as accumulation of cells at S phase at 100 nM incubated for 72 hrs by annexin V-FITC and PI staining based flow cytometry analysis. It is filed as functional.
Data set [4] has as its system HeLa. Kind of data set: Induction of cell cycle arrest in human HeLa cells assessed as accumulation of cells at S phase at 1000 nM incubated for 72 hrs by annexin V-FITC and PI staining based flow cytometry analysis. Type of data set: functional.
In data set [5] the test system is HeLa. Kind of data set: Induction of cell cycle arrest in human HeLa cells assessed as accumulation of cells at G2/M phase at 2500 nM incubated for 72 hrs by annexin V-FITC and PI staining based flow cytometry analysis. It is filed as functional.
Data set [6] relates to HeLa. Kind of data set: Induction of cell cycle arrest in human HeLa cells assessed as accumulation of cells at G1 phase at 1000 nM incubated for 72 hrs by annexin V-FITC and PI staining based flow cytometry analysis. It is filed as functional.
The test system of data set [7] is AHH-1. Kind of data set: Induction of cell cycle arrest in human AHH-1 cells assessed as accumulation of cells at G1 phase at 100 nM incubated for 72 hrs by annexin V-FITC and PI staining based flow cytometry analysis. It is filed as functional.
Data set [8] relates to AHH-1. The data set can be described thus: Induction of apoptosis in human AHH-1 cells at 100 to 2500 nM measured after 72 hrs by annexin V-FITC and PI staining based flow cytometry analysis. To be noted: dose 100-2500 nM. It is filed as functional, cell-based.
Another data set relates to Maver1. The data set can be described thus: Antiproliferative activity against human MAVER-1 cells assessed as inhibition of cell growth measured for 72 hrs by MTT assay. Type of data set: functional, cell-based. To be noted: Maver1, 72 h.
For data set [9], the system named is AHH-1. The data set can be described thus: Induction of cell cycle arrest in human AHH-1 cells assessed as accumulation of cells at sub-G1 phase incubated for 72 hrs by annexin V-FITC and PI staining based flow cytometry analysis. Type of data set: functional.
For data set [10], the system named is HeLa. The data set can be described thus: Induction of cell cycle arrest in human HeLa cells assessed as accumulation of cells at G1 phase at 2500 nM incubated for 72 hrs by annexin V-FITC and PI staining based flow cytometry analysis. It is filed as functional.
Data set [11] relates to AHH-1. The data set can be described thus: Induction of cell cycle arrest in human AHH-1 cells assessed as accumulation of cells at G1 phase at 2500 nM incubated for 72 hrs by annexin V-FITC and PI staining based flow cytometry analysis. Type of data set: functional.
The test system of data set [12] is HeLa. Kind of data set: Induction of cell cycle arrest in human HeLa cells assessed as accumulation of cells at G2/M phase at 1000 nM incubated for 72 hrs by annexin V-FITC and PI staining based flow cytometry analysis. Type of data set: functional.
A further data set has as its system KARPAS-422. The data set can be described thus: Antiproliferative activity against human KARPAS-422 cells assessed as inhibition of cell growth measured for 72 hrs by MTT assay. Type of data set: functional, cell-based. To be noted: KARPAS-422, 72 h.
A further data set deals with TMD8. The data set can be described thus: Antiproliferative activity against human TMD8 cells assessed as inhibition of cell growth measured for 72 hrs by MTT assay. Type of data set: functional, cell-based. To be noted: TMD8, 72 h.
In data set [13] the test system is TERT-RPE1. Kind of data set: Induction of cell cycle arrest in human TERT-RPE1 cells assessed as accumulation of cells at S phase at 100 nM incubated for 72 hrs by annexin V-FITC and PI staining based flow cytometry analysis. Type of data set: functional.
For data set [14], the system named is TERT-RPE1. The data set can be described thus: Induction of cell cycle arrest in human TERT-RPE1 cells assessed as accumulation of cells at G2/M phase at 1000 nM incubated for 72 hrs by annexin V-FITC and PI staining based flow cytometry analysis. Type of data set: functional.
For data set [15], the system named is HeLa. Kind of data set: Induction of cell cycle arrest in human HeLa cells assessed as accumulation of cells at S phase at 100 nM incubated for 72 hrs by annexin V-FITC and PI staining based flow cytometry analysis. Type of data set: functional.
Data set [16] relates to TERT-RPE1. Kind of data set: Induction of cell cycle arrest in human TERT-RPE1 cells assessed as accumulation of cells at S phase at 2500 nM incubated for 72 hrs by annexin V-FITC and PI staining based flow cytometry analysis. It is filed as functional.
Data set [17] relates to AHH-1. Kind of data set: Induction of cell cycle arrest in human AHH-1 cells assessed as accumulation of cells at G2/M phase at 2500 nM incubated for 72 hrs by annexin V-FITC and PI staining based flow cytometry analysis. It is filed as functional.
Data set [18] has as its system HeLa. Kind of data set: Induction of cell cycle arrest in human HeLa cells assessed as accumulation of cells at S phase at 2500 nM incubated for 72 hrs by annexin V-FITC and PI staining based flow cytometry analysis. It is filed as functional.
The next data set concerns Farage. Kind of data set: Antiproliferative activity against human Farage cells assessed as inhibition of cell growth measured for 72 hrs by MTT assay. It is filed as functional, cell-based.
Data set [19] deals with HeLa. Kind of data set: Induction of cell cycle arrest in human HeLa cells assessed as accumulation of cells at sub-G1 phase incubated for 72 hrs by annexin V-FITC and PI staining based flow cytometry analysis. Type of data set: functional.
Data set [20] deals with TERT-RPE1. Kind of data set: Induction of cell cycle arrest in human TERT-RPE1 cells assessed as accumulation of cells at G2/M phase at 100 nM incubated for 72 hrs by annexin V-FITC and PI staining based flow cytometry analysis. It is filed as functional.
The test system of another data set is U2932. The data set can be described thus: Antiproliferative activity against human U2932 cells assessed as inhibition of cell growth measured for 72 hrs by MTT assay. Type of data set: functional, cell-based. Conditions: U2932, 72 h.
Data set [21] relates to AHH-1. The data set can be described thus: Induction of cell cycle arrest in human AHH-1 cells assessed as accumulation of cells at G2/M phase at 100 nM incubated for 72 hrs by annexin V-FITC and PI staining based flow cytometry analysis. Type of data set: functional.
Another data set has as its system Z-138. The data set can be described thus: Antiproliferative activity against human Z138 cells assessed as inhibition of cell growth measured for 72 hrs by MTT assay. To be noted: Z-138, 72 h. It is filed as functional, cell-based.
Data set [22] has as its system TERT-RPE1. Kind of data set: Induction of cell cycle arrest in human TERT-RPE1 cells assessed as accumulation of cells at G1 phase at 2500 nM incubated for 72 hrs by annexin V-FITC and PI staining based flow cytometry analysis. It is filed as functional.
Data set [23] relates to HeLa. Kind of data set: Induction of cell cycle arrest in human HeLa cells assessed as accumulation of cells at G1 phase at 100 nM incubated for 72 hrs by annexin V-FITC and PI staining based flow cytometry analysis. It is filed as functional.
The test system of data set [24] is AHH-1. Kind of data set: Induction of cell cycle arrest in human AHH-1 cells assessed as accumulation of cells at G2/M phase at 1000 nM incubated for 72 hrs by annexin V-FITC and PI staining based flow cytometry analysis. Type of data set: functional.
The subject of data set [25] is HeLa. The data set can be described thus: Induction of cell cycle arrest in human HeLa cells assessed as accumulation of cells at G2/M phase at 100 nM incubated for 72 hrs by annexin V-FITC and PI staining based flow cytometry analysis. It is filed as functional.
Data set [26] has as its system AHH-1. Kind of data set: Induction of cell cycle arrest in human AHH-1 cells assessed as accumulation of cells at S phase at 1000 nM incubated for 72 hrs by annexin V-FITC and PI staining based flow cytometry analysis. It is filed as functional.
Data set [27] concerns TERT-RPE1. The data set can be described thus: Induction of cell cycle arrest in human TERT-RPE1 cells assessed as accumulation of cells at G1 phase at 1000 nM incubated for 72 hrs by annexin V-FITC and PI staining based flow cytometry analysis. Type of data set: functional.
The subject of data set [28] is AHH-1. Kind of data set: Induction of cell cycle arrest in human AHH-1 cells assessed as accumulation of cells at S phase at 2500 nM incubated for 72 hrs by annexin V-FITC and PI staining based flow cytometry analysis. It is filed as functional.
The test system of data set [29] is TERT-RPE1. Kind of data set: Induction of cell cycle arrest in human TERT-RPE1 cells assessed as accumulation of cells at G2/M phase at 2500 nM incubated for 72 hrs by annexin V-FITC and PI staining based flow cytometry analysis. It is filed as functional.
The subject of data set [30] is AHH-1. The data set can be described thus: Induction of cell cycle arrest in human AHH-1 cells assessed as accumulation of cells at G1 phase at 1000 nM incubated for 72 hrs by annexin V-FITC and PI staining based flow cytometry analysis. Type of data set: functional.
Data set [31] has as its system TERT-RPE1. The data set can be described thus: Induction of cell cycle arrest in human TERT-RPE1 cells assessed as accumulation of cells at S phase at 1000 nM incubated for 72 hrs by annexin V-FITC and PI staining based flow cytometry analysis. It is filed as functional.
Data set [32] has as its system TERT-RPE1. The data set can be described thus: Induction of cell cycle arrest in human TERT-RPE1 cells assessed as accumulation of cells at G1 phase at 100 nM incubated for 72 hrs by annexin V-FITC and PI staining based flow cytometry analysis. It is filed as functional.

For the compound `CCOc1ccc2ccc(=O)oc2c1` [ETHOXYCOUMARIN], the half-life in data set [1] turned out to be 3.3 min; in data set [2], 8.3 min.
As to `COc1ccc(/C=C\c2cc(OC)c(OC)c(OC)c2)cc1O` [COMBRETASTATIN A4], the Activity in the data set with AHH-1 [3] was 17%; with HeLa [4], 16.8%; with HeLa [5] it was 75.2%; in the data set with HeLa [6], 10.1%; in the data set on AHH-1 [7], 8.6%; with HeLa [10], 8.8%. Moreover, the Activity was 7% in the data set with AHH-1 [11]; 73.1% in the data set on HeLa [12]; 9% in the data set with TERT-RPE1 [13]; 74.6% in the data set on TERT-RPE1 [14]; 15.5% with HeLa [15]; 5.4% in the data set on TERT-RPE1 [16]. Also, the Activity came out at 74.1% with AHH-1 [17]; 9.2% with HeLa [18]; 68% in the data set on TERT-RPE1 [20]; 74.5% in the data set on AHH-1 [21]; 19% with TERT-RPE1 [22]; 23.4% with HeLa [23]. For the same compound, the Activity with AHH-1 [24] came to 78.8%; in the data set with HeLa [25] it was 61.1%; in the data set with AHH-1 [26] it was 13.4%; with TERT-RPE1 [27], 17.1%; in the data set on AHH-1 [28], 10.3%; in the data set with TERT-RPE1 [29], 73%. The Activity in the data set on AHH-1 [30] is given as 7.8%; with TERT-RPE1 [31], 8.4%; in the data set with TERT-RPE1 [32] it was 23%. Moreover, the result in the data set on AHH-1 [8], with AHH-1 [9] and in the data set on HeLa [19] was Active. The half-inhibitory concentration (IC50) in the data set on Maver1 came to 4.6 nM; in the data set with KARPAS-422, 0.58 nM; with TMD8 it was 0.66 nM; with Farage, 0.7 nM; with U2932, 0.89 nM; in the data set on Z-138, 0.78 nM.
As to `CC(C)NCC(O)COc1cccc2ccccc12` (stereo not given) [PROPRANOLOL], the half-life in data set [1] was found to be 11.8 min; in data set [2], 47 min.
